Data from ChEMBL document CHEMBL1201862, “PubChem BioAssay data set” (2004).
The source made the active and inactive calls.

Columns and labels:
[1] = biological target: 26S proteasome non-ATPase regulatory subunit 14 (Homo sapiens, UniProt O00487); experiment: inhibition of proteasome subunit RPN11 – biochemical, fluorescence polarization, uHTS hits, confirmation (AID 602368); format: functional
[2] = biological target: 72 kDa type IV collagenase (Homo sapiens, UniProt P08253); experiment: Dose Response validation of uHTS RPN11 inhibitor hits using a MMP-2 Fluorescence assay.; format: functional
[3] = biological target: Prothrombin (Bos taurus, UniProt P00735); experiment: thrombin protease inhibitors – biochemical, fluorescence polarization, uHTS hits, dose response (AID 602369); format: functional
[4] = biological target: T1, Ubiquitin-conjugating enzyme E2 N (Homo sapiens, UniProt P61088); format: functional;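 note: Dose-response confirmation in a TR-FRET assay detecting UBC13-driven polyubiquitin chain formation, inhibition measured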
T1 sequence (P61088 whole entry): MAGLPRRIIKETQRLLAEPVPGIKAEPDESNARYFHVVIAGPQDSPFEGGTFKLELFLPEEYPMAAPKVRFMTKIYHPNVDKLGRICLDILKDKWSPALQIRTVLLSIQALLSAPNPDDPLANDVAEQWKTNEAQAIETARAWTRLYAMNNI

[5] = biological target: T2, High affinity choline transporter 1 (Homo sapiens, UniProt Q9GZV3); experiment: human choline transporter potentiators, potency – cell-based, 10-point CRC, membrane potential dye, dose response (AID 602376); format: functional
T2 sequence (Q9GZV3 whole entry): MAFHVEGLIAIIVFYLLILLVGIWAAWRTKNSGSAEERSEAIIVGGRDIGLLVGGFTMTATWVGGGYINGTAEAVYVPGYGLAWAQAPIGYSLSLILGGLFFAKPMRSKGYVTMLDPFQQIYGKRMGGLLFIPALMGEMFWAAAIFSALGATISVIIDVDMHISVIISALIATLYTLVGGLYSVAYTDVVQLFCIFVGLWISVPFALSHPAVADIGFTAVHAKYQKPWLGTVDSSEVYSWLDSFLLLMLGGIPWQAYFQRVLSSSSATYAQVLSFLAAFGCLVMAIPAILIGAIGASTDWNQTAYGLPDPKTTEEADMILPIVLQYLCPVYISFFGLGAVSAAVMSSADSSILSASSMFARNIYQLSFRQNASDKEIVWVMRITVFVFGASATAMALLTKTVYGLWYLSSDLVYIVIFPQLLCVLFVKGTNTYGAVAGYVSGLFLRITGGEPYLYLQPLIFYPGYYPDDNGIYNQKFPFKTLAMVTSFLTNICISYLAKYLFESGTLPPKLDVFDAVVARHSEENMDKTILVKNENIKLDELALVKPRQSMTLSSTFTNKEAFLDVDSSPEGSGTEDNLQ

[6] = tested on: INS1; experiment: INS-1E survival protection against cytokine death – cell-based, luminescence, retest, dose response (AID 449756); format: functional; settings: Rattus norvegicus;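 note: cell death triggered by IL-1 beta plus TNF-alpha plus IFN-gamma mixture; protective hits raise ATP signal compared with cytokine alone wells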
[7] = HEK-293T cell viability reduction – luminescence, B-cell screen hits, cytotoxicity control for BCR NF-kB inhibitor project, dose response (AID 489021); format: functional, cell-based;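 note: HEK-293T cells carrying an NF-kB luciferase reporter; cells exposed to compound for about 14 hours before viability readout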
[8] = NIH3T3 cell viability loss – ATP luminescence, mouse fibroblasts, counter-screen, dose response (AID 2010); format: functional, cell-based;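 note: cells exposed to compound for about 90 hours before reading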
[9] = Trypanosoma cruzi growth suppression in host cells – NIH3T3 host cells, beta-gal luminescence, confirmation (AID 2044); format: functional, cell-based;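 note: intracellular parasites grown in NIH/3T3 mouse fibroblasts as host cells; luminescent beta-galactosidase reporter signal from transgenic T. cruzi replicating inside host cells; inhibitors lower the luminescence signal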
[10] = biological target: Tyrosine-protein kinase Blk (Homo sapiens, UniProt P51451); format: functional;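 note: obtained as one member of a kinome-wide kinase assay panel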
[11] = biological target: Tyrosine-protein kinase ABL1 (Homo sapiens, UniProt P00519); format: functional
[12] = biological target: Vascular endothelial growth factor receptor 3 (Homo sapiens, UniProt P35916); format: functional;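 note: value from a kinome-wide profiling panel, with FLT4 as the panel member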
Vascular endothelial growth factor receptor 3, sequence (P35916 whole entry): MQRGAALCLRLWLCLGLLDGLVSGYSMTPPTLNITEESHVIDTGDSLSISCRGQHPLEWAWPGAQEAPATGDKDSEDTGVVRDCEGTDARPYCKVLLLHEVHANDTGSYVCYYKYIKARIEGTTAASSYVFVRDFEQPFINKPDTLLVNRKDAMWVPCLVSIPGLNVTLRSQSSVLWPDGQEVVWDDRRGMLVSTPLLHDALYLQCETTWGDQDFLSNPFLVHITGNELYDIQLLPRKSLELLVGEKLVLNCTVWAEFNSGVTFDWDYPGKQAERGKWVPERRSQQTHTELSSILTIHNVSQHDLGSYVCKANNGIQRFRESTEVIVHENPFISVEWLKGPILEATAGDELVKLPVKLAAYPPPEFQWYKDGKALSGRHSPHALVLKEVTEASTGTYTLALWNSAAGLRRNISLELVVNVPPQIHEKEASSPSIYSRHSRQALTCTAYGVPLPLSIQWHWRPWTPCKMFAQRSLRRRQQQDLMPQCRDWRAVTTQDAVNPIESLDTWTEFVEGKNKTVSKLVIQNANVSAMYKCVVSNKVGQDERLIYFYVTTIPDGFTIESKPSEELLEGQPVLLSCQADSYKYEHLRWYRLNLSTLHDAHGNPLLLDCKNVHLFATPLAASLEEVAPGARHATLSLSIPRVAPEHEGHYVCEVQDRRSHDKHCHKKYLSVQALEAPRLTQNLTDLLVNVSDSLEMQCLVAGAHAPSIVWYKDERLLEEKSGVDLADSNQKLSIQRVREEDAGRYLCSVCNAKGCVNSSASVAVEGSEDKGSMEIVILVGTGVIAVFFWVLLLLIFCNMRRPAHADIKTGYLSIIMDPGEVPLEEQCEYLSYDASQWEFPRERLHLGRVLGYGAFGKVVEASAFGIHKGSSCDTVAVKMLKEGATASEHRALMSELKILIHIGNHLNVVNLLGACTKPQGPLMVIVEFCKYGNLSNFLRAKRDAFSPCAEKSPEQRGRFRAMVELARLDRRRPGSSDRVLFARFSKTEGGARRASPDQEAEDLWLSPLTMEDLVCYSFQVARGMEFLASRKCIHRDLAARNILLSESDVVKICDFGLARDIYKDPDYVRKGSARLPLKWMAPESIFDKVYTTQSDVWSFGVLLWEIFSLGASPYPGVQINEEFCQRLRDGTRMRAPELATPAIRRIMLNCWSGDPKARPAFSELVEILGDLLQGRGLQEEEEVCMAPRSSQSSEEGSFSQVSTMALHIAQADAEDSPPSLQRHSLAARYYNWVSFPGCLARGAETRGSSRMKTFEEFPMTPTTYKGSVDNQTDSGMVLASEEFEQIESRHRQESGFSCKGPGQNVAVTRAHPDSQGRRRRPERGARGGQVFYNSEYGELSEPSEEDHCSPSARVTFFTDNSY

[13] = biological target: Tyrosine-protein kinase Lyn (Homo sapiens, UniProt P07948); format: functional;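 note: lyn as one member of a kinase panel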
Tyrosine-protein kinase Lyn, sequence (P07948 whole entry): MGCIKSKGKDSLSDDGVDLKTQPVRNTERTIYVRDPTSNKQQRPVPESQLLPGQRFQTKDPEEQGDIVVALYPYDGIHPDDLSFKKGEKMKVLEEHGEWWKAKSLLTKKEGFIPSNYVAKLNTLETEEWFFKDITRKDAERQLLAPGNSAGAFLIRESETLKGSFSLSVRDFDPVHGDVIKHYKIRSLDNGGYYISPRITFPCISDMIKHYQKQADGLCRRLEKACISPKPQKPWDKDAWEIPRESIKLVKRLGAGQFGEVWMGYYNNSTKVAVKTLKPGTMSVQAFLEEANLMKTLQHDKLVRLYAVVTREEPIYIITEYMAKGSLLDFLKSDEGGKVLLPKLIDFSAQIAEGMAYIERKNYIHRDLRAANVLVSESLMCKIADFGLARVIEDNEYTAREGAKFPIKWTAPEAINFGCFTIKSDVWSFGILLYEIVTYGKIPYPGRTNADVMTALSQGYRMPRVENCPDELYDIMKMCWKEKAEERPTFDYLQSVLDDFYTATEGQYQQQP

[14] = biological target: Vascular endothelial growth factor receptor 2 (Homo sapiens, UniProt P35968); format: functional
Vascular endothelial growth factor receptor 2, sequence (P35968 whole entry): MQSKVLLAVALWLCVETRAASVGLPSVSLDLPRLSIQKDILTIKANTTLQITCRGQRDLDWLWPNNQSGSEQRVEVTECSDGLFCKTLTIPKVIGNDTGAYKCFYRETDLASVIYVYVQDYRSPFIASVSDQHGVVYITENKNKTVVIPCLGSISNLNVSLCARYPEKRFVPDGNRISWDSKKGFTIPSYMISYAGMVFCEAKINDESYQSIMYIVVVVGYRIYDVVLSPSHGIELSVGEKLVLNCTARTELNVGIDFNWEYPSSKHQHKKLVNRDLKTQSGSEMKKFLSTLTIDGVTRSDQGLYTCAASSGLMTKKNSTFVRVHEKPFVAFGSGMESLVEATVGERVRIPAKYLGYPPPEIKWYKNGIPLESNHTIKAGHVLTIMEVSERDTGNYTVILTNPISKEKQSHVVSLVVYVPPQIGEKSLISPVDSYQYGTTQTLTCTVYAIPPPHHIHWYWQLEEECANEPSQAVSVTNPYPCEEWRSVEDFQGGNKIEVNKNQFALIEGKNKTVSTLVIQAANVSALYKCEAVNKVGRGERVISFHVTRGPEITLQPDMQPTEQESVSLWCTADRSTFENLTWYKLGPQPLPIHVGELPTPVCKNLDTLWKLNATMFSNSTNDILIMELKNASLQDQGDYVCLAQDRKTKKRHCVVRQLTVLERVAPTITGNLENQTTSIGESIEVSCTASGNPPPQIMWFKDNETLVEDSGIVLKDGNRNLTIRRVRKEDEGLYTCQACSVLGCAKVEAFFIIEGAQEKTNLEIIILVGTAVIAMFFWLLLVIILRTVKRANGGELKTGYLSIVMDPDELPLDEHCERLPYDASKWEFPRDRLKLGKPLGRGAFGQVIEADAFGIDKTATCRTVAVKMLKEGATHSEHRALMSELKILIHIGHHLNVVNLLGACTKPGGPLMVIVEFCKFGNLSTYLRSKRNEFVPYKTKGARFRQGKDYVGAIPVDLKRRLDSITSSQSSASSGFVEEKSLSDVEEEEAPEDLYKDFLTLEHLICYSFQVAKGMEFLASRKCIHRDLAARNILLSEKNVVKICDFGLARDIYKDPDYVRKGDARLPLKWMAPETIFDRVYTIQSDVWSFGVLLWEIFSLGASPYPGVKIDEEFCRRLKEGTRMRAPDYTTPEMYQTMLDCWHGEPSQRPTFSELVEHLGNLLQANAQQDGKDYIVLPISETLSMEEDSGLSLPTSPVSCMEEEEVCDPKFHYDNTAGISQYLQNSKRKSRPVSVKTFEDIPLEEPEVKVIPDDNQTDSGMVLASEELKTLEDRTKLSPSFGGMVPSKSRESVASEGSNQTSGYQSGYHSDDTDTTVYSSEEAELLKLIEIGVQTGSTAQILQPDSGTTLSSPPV

[15] = biological target: Vascular endothelial growth factor receptor 1 (Homo sapiens, UniProt P17948); format: functional;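 note: measured within a kinome-wide profiling panel, FLT1 as the panel member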
[16] = biological target: Mast/stem cell growth factor receptor Kit (Homo sapiens, UniProt P10721); format: functional;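 note: KIT entry within a kinase panel assay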
[17] = biological target: Tyrosine-protein kinase Lck (Homo sapiens, UniProt P06239); format: functional;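 note: lck was assayed as one member of a kinase panel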
Tyrosine-protein kinase Lck, sequence (P06239 whole entry): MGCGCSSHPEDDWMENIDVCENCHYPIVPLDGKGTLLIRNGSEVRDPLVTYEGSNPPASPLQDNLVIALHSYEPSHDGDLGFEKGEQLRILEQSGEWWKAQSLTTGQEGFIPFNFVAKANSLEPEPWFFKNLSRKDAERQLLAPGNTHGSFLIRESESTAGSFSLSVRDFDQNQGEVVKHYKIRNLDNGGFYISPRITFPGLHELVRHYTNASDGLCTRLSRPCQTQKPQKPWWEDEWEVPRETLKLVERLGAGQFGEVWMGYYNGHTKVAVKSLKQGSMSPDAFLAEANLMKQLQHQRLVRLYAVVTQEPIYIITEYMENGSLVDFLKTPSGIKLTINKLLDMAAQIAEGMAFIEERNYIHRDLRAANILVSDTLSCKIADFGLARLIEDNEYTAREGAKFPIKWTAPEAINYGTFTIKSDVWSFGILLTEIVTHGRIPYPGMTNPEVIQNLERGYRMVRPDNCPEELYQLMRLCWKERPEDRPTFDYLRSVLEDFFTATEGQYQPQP

[18] = biological target: Proto-oncogene tyrosine-protein kinase Src (Homo sapiens, UniProt P12931); format: functional;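 note: SRC entry within a kinome-wide kinase profiling panel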
[19] = biological target: T3, Receptor-type tyrosine-protein kinase FLT3 (Homo sapiens, UniProt P36888); format: functional;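 note: FLT3 was tested as one member of a kinome-wide kinase panel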
T3 sequence (P36888 whole entry): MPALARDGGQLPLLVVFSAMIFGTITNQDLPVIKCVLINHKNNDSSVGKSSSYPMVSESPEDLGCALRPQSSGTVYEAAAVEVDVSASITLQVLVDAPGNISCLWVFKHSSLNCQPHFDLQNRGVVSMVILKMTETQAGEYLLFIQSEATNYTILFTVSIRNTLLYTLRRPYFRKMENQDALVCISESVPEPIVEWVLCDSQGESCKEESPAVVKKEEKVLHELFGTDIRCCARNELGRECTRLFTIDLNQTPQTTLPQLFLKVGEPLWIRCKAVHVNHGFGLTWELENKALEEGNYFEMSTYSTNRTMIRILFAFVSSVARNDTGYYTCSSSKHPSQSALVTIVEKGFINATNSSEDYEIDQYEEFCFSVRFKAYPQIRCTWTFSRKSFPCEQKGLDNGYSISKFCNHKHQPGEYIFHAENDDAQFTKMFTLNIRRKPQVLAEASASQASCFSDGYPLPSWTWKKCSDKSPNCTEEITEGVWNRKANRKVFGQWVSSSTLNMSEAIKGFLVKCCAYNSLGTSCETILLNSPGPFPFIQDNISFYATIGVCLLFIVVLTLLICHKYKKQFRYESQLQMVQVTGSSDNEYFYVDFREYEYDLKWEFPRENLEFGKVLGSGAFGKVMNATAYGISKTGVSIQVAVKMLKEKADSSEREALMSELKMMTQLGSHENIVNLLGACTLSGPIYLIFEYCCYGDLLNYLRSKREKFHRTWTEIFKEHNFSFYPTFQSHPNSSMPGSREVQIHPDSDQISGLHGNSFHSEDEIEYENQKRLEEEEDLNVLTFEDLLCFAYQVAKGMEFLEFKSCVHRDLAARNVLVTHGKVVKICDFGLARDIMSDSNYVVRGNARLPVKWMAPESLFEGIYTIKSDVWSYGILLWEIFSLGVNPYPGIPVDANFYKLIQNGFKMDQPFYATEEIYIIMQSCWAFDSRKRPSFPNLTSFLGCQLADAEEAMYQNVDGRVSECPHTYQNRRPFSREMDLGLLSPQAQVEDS

[20] = biological target: Tyrosine-protein kinase Fyn (Homo sapiens, UniProt P06241); format: functional
Tyrosine-protein kinase Fyn, sequence (P06241 whole entry): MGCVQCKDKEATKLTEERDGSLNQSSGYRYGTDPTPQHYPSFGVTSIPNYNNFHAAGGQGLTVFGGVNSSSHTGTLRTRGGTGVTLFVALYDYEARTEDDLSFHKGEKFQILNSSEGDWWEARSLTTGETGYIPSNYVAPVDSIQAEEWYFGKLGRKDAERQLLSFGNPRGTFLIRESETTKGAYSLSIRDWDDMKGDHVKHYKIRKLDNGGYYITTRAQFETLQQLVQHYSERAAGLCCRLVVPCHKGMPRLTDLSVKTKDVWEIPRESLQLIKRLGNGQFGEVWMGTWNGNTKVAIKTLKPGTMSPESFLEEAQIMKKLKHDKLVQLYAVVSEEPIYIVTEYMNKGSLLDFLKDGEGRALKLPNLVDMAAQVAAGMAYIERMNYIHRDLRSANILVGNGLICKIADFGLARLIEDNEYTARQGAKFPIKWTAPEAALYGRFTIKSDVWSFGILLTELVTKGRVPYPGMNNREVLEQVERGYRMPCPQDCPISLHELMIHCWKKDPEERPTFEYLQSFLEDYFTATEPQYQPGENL

[21] = biological target: Macrophage colony-stimulating factor 1 receptor (Homo sapiens, UniProt P07333); format: functional;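 note: value comes from the Navigating the Kinome screening panel, CSF1R member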
[22] = biological target: Benomyl/methotrexate resistance protein (Candida albicans, UniProt P28873); experiment: Candida albicans Mdr1 pump inhibition curves – singleplex, Cherry Pick1 hits, dose response (AID 588608); format: functional
[23] = biological target: Multidrug resistance protein CDR1 (Candida albicans, UniProt P43071); experiment: inhibition of Nile Red efflux via Candida CDR1 – S. cerevisiae AD1-8u, singleplex, Cherry Pick1 hits, dose response (AID 588606); format: functional
[24] = biological target: T4, Mannose-6-phosphate isomerase (Homo sapiens, UniProt P34949); experiment: MPI inhibition at elevated mannose 6-phosphate – biochemical, fluorescence intensity, high mannose 6-phosphate, primary screen (AID 1220)
T4 sequence (P34949 whole entry): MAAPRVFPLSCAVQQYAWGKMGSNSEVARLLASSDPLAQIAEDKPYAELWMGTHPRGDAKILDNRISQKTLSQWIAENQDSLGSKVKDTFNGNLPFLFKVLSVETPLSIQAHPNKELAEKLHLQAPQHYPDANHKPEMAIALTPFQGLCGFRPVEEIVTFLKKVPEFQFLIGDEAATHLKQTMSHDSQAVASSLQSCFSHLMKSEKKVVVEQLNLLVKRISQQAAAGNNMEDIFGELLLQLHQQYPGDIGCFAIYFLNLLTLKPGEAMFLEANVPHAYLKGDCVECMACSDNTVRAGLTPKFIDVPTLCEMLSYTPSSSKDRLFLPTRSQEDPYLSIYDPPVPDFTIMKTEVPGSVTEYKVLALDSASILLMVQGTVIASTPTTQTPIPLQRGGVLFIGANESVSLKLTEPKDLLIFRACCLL

[25] = tested on: HEK293; experiment: membrane integrity loss in HEK cells – cell-based, fluorescence, cytotoxicity control for IDE activator project, dose response (AID 588440); format: functional; settings: Homo sapiens;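 note: cytotoxicity by LDH release measuring loss of membrane integrity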
[26] = biological target: T5, Insulin-degrading enzyme (Homo sapiens, UniProt P14735); experiment: cellular IDE activation of Abeta substrate cleavage – fluorescence polarization, HEK cells, dose response (AID 588439); format: functional, cell-based
T5 sequence (P14735 whole entry): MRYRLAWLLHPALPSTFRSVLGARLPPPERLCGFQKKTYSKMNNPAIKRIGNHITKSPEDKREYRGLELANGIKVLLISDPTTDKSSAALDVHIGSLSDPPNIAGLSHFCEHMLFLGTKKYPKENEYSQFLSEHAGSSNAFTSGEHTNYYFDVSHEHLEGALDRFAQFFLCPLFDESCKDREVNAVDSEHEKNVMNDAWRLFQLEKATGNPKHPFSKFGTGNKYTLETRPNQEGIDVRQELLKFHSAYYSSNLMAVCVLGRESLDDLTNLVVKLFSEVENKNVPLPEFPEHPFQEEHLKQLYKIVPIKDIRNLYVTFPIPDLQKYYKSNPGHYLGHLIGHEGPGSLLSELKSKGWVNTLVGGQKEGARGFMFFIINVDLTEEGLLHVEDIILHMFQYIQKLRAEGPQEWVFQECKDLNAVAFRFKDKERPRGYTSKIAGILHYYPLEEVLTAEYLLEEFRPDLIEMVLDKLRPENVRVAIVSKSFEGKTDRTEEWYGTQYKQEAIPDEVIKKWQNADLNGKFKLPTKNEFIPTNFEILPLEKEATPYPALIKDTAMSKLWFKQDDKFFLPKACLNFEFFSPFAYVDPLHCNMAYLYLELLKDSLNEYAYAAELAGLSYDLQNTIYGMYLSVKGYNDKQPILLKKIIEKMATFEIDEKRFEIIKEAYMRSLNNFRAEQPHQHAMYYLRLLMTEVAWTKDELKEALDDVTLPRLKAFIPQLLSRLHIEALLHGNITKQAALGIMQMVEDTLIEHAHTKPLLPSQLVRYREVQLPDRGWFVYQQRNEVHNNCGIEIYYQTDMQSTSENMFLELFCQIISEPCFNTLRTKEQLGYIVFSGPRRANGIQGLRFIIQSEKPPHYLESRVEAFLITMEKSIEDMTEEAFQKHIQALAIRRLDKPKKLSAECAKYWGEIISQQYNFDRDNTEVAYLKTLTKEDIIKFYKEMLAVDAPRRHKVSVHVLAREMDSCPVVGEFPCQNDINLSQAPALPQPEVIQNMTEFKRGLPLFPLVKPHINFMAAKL

[27] = biological target: T5, Insulin-degrading enzyme; experiment: recombinant IDE activation, cell-free – biochemical, fluorescence polarization, counter-screen for IDE activator project, dose response (AID 588681)
[28] = tested on: HEK293; experiment: optical interference in Abeta FP readout, dose response, artefact control for IDE activator project, biochemical, fluorescence polarization (AID 588442); format: functional, cell-based; settings: Homo sapiens
[29] = biological target: T6, Protein disulfide-isomerase (Homo sapiens, UniProt P07237); experiment: inhibition of PDI-driven insulin aggregation – biochemical, turbidity, absorbance, cherry-picked samples, dose response (AID 602350); format: functional
T6 sequence (P07237 whole entry): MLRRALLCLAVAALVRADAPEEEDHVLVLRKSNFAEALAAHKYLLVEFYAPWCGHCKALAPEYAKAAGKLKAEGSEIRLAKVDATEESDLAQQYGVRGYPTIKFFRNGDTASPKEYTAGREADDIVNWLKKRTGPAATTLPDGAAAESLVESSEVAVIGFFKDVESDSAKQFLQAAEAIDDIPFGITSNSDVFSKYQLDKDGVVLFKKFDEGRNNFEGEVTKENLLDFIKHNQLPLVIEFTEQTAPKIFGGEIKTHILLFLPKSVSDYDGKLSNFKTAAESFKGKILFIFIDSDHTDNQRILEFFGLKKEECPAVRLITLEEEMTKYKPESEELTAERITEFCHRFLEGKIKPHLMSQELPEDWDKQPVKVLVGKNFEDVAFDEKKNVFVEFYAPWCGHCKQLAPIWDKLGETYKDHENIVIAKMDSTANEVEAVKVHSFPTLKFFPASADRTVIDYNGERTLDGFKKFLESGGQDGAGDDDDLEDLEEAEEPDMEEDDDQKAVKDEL

[30] = tested on: Vero; experiment: inhibition of WNV-induced cytopathic effect – cell-based, CPE readout (AID 1621); format: functional; settings: Chlorocebus sabaeus
[31] = biological target: T6, Protein disulfide-isomerase; experiment: inhibition of PDI-mediated insulin reduction – biochemical, turbidity, dry powder samples, set 2, confirmation (AID 652146)
[32] = loss of viability in HeLa cells – cell-based, ATP luminescence, dry powder, cytotoxicity control, dose response (AID 652117); format: functional
[33] = tested on: INS1; experiment: beta-cell survival under cytokine stress – INS-1E, ATP luminescence, dry powder, dose response (AID 488844); format: functional, cell-based; settings: Rattus norvegicus
[34] = suppression of NO production in INS-1E cells – cell-based, Griess absorbance, dry powder, set 3, dose response (AID 488870); format: functional; settings: Rattus norvegicus
[35] = tested on: INS1; experiment: suppression of NO production in INS-1E cells – cell-based, Griess absorbance, dry powder, set 2, dose response (AID 488868); format: functional; settings: Rattus norvegicus

SMILES: CC(=O)n1cc([C@H]2C=C(C(=O)Nc3ccccc3)O[C@@H](OCc3ccc(CO)cc3)C2)c2ccccc21
- IC50 [1]: 65.6 µM (active)
- IC50 [2]: > 100 µM (inactive)
- IC50 [3]: 80.6 µM (active)
- IC50 [4]: > 20 µM (inactive)

SMILES: CCOc1ccc(-c2cn3c([n+]2-c2ccccc2)CCCCC3)cc1
- EC50 [5]: 6.83 µM (active)
- AC50 [6]: 0.998 µM (active)
- IC50 [7]: > 80 µM (inactive)
- EC50 [8]: 15.1 µM (active)
- EC50 [9]: 0.463 µM (active)

SMILES: COc1ccc(-c2ccc(NC(=O)Nc3ccc(OC(F)(F)F)cc3)cc2)c2c(N)noc12
- Ki [10]: 0.0158 µM (active)
- Ki [11]: 0.2 µM (active)
- Ki [12]: 0.0126 µM (active)
- Ki [13]: 0.0631 µM (active)
- Ki [14]: 0.001 µM (active)
- Ki [15]: 0.000631 µM (active)
- Ki [16]: 0.00158 µM (active)
- Ki [17]: 0.0316 µM (active)
- Ki [18]: 0.126 µM (active)
- Ki [19]: 0.00126 µM (active)
- Ki [20]: 0.0794 µM (active)
- Ki [21]: 0.00501 µM (active)

SMILES: CC(C)C(=O)N1CCC2(CC1)Oc1ccc(F)cc1C(=O)C21CC(c2ccc(Cl)cc2)=NO1 (stereo not given)
- EC50 [22]: 31.7 µM (active)
- EC50 [23]: 12.6 µM (active)

SMILES: O=c1oc2cc(O)ccc2cc1-c1nc2c(s1)CCc1ccccc1-2
- IC50 [24]: > 50 µM (not active)
- IC50 [25]: > 89.2 µM (inactive)
- EC50 [26]: > 54.7 µM (inactive)
- EC50 [27]: > 54.7 µM (inactive)
- EC50 [28]: 4.6 µM (active)

SMILES: CCOC(=O)c1c(CN2CCN(CCO)CC2)n(-c2ccccc2)c2cc(Br)c(O)cc12
- AC50 [29]: 0.61 µM (active)
- IC50 [30]: 20.2 µM (active)
- AC50 [31]: 2 µM (active)
- AC50 [32]: > 52 µM (inactive)

SMILES: C[C@@H]1CN([C@H](C)CO)C(=O)c2cccc(NC(=O)Nc3cccc4ccccc34)c2O[C@H]1CN(C)S(=O)(=O)c1ccc(Cl)cc1
- AC50 [33]: 187 µM (active)
- AC50 [34]: 112 µM (active)
- AC50 [35]: 48.5 µM (active)
